Here are results for 54 molecules from US20090118135A1, “METHODS AND COMPOUNDS FOR REGULATING APOPTOSIS” (The Burnham Institute, priority 2007, published 2009).

This experiment has as its target T1, GST-Bfl-1 (Homo sapiens, UniProt Q16548).
T1 construct: lacking their C-terminal transmembrane domains (about the last 20 amino acids) (“ΔTM”); made in house; host or cells: XL-1 Blue E. coli, pGEX 4T-1
T1 sequence (Q16548 1-155 limits assumed): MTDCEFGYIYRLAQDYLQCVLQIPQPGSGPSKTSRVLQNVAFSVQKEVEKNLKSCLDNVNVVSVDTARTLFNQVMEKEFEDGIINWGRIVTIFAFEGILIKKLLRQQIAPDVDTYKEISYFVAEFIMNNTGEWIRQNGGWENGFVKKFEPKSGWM
Description: Bfl-1/FITC-Bid BH3 competitive fluorescence polarization assay. Format: binding. The conditions noted are these: primary HTS hits, MLSCN library (PubChem SIDs), Table 5B. How it is done: A FPA was performed to determine the binding affinity of FITC-Bid BH3 peptide to Bcl-2 proteins. […] IC50 determinations were performed using GraphPad Prism software (GraphPad, Inc., San Diego, Calif.). FPA competition assays were performed using the same procedure described above, except that 100 nM of GST-Bfl-1 protein in a volume of 45 μl was incubated with 5 μl (50 μM) test compounds in DMSO per well for 30 min prior to addition of 50 μl (5 nM) FITC-Bid BH3 peptide. The final DMSO concentration was 5% when the reactions brought to fall volume of 100 μl. Fluorescence polarization was measured after 10 min. Compounds that reduced the fluorescence polarization by 50% were considered hits.

For `CCN1CCN(c2ccc(NC(=O)c3cccc4ncccc34)cc2)CC1` [Compound 842582], the “% Activity” value worked out at 76.3% and the FRatio was determined as 0.21.
For `O=C1c2ccccc2CC1Sc1nnc(-c2ccccn2)o1` (stereo not drawn) [Compound 842657] the same measures were 65.7% and 1.17.
The like results for `Cc1ccc2c(c1C)NC(C(=O)O)C1CC=CC21` (stereo not drawn) [Compound 844096] were, in that order, 98.3% and 0.53.
The like results for `N=c1c(C(=O)NCC2CCCO2)cc2c(=O)n3ccccc3nc2n1Cc1cccnc1` (stereo not drawn) [Compound 844196] were, in that order, 63.4% and 0.93.
For `Cc1c(NC(=O)c2cc3nc(-c4ccccc4)cc(C)n3n2)c(=O)n(-c2ccccc2)n1C` [Compound 844334], the “% Activity” value was 63.5% and the FRatio was determined as 0.88.
For `c1coc(C2Nc3cccc4cccc(c34)N2)c1` [Compound 844697] the same measures were 78.1% and 1.08.
The like results for `Cc1nn2c(N)csc2nc1=O` [Compound 846443] were, in that order, 56.4% and 1.35.
Consider `COc1ccc(OC)c(NC(=O)CCN2CCC(C)CC2)c1` [Compound 846609], for which the “% Activity” value is 73% and the FRatio worked out at 0.65.
The like results for `COc1cccc(C(=O)NC2CC3CCCC(C2)N3CC(=O)Nc2ccccc2)c1` (stereo not drawn) [Compound 847772] were, in that order, 90% and 0.72.
The like results for `O=C(O)CCc1ccc(-c2cccs2)n1CCC(=O)O` [Compound 848328] were, in that order, 74.6% and 0.59.
Turning to `Cc1cccn2c(=O)c3cc(C(=O)NCC4CCCO4)c(=N)n(Cc4cccnc4)c3nc12` (stereo not drawn) [Compound 849581], the “% Activity” value came out at 60.6% and the FRatio is reported as 0.89.
The like results for `CC(=O)C1=C(O)C(=O)N(Cc2ccccc2)C1c1ccco1` (stereo not drawn) [Compound 851207] were, in that order, 52.6% and 0.52.
Take `O=C(CSc1n[nH]c(-c2ccccc2)n1)c1ccc(O)c(O)c1` [Compound 851690]: the “% Activity” value worked out at 75.1% and the FRatio is listed as 0.43.
For `Cc1ccc(C)n1C(Cc1ccccc1)C(=O)O` (stereo not drawn) [Compound 852148] the same measures were 82.9% and 1.37.
For `Oc1ccc(Nc2nc(N3CCCC3)c3ccccc3n2)cc1` [Compound 852615] the same measures were 96.1% and 0.46.
The like results for `COc1ccc(NC(=O)C2CCN(c3nc(C)nc4c3CCC4)CC2)cc1` [Compound 852694] were, in that order, 66.2% and 1.37.
Take `CC1CCN(c2ccc(C(=O)O)cc2N)CC1` [Compound 852908]: the “% Activity” value turned out to be 73.3% and the FRatio is recorded as 0.75.
For `c1coc(-c2nn3c(-c4ccco4)nnc3s2)c1` [Compound 853208] the same measures were 60.4% and 0.83.
The like results for `CCN(CC)CCc1c(C)[nH]c(C(=O)OCc2ccccc2)c1C` [Compound 853427] were, in that order, 70.8% and 1.
The like results for `CN(C)c1ccc(NC(=O)CN2C(=O)CC(c3ccccc3)=Nc3ccccc32)cc1` [Compound 853473] were, in that order, 62.6% and 0.6.
Take `O=C1c2ccccc2C(=O)N1CC#CCN1CCN(C2CCCCC2)CC1` [Compound 856035]: the “% Activity” value turned out to be 56.3% and the FRatio came to 0.7.
With `Cc1c[nH]c2cccc(OCC(O)CNC(C)(C)C)c12` (stereo not drawn) [Compound 856249], the “% Activity” value was found to be 52.2% and the FRatio stood at 0.65.
The like results for `N#C/C(C(N)=O)=c1/ccc2c(c1)N1C3=C(CCCC3)CC3CCCCC31N=2` (stereo not drawn) [Compound 856266] were, in that order, 74.3% and 0.62.
For `CCn1c(SC(C)C(=O)O)nc2sc3c(c2c1=O)CCC3` (stereo not drawn) [Compound 856662] the same measures were 95.1% and 0.59.
For `CCn1c(SCC(=O)O)nc2sc3c(c2c1=O)CCC3` [Compound 856717] the same measures were 83% and 0.85.
Turning to `C=CCn1c(SCC(=O)OC)nc2sc3c(c2c1=O)CCN(C)C3` [Compound 856802], the “% Activity” value is on record as 53.2% and the FRatio is 1.23.
Consider `CC(=O)C1=C(C)OC(N)=C(C#N)C1c1ccco1` (stereo not drawn) [Compound 857779], for which the “% Activity” value came out at 65.4% and the FRatio stood at 1.13.
For `O=C(CCN1CCc2ccccc21)c1ccc2c(c1)OCCO2` [Compound 857910] the same measures were 79.4% and 0.24.
Consider `Cc1ccc(N2CN=c3s/c(=C\c4cccnc4)c(=O)n3C2)cc1` [Compound 858221], for which the “% Activity” value stood at 78.6% and the FRatio worked out at 0.88.
The like results for `Cc1ccc(C)n1Cc1ccc(C(=O)O)cc1` [Compound 858431] were, in that order, 76.8% and 0.63.
The like results for `CSc1nnc(-c2ccco2)c(-c2ccco2)n1` [Compound 859770] were, in that order, 107% and 0.53.
For `Cn1c(=N)c(S(=O)(=O)c2ccccc2)cc2c(=O)n3ccccc3nc21` [Compound 859963], the “% Activity” value is 50.4% and the FRatio worked out at 1.49.
For `O=S(=O)(c1ccccc1)N(CC(O)CN1CCCCC1)c1ccccc1` (stereo not drawn) [Compound 859970] the same measures were 53.9% and 0.98.
For `CC(=O)Nc1ccc(OC(=O)CC2SC(=O)NC2=O)cc1` (stereo not drawn) [Compound 860139] the same measures were 68.2% and 1.06.
For `O=C(CSc1nnc(-c2ccco2)c(-c2ccco2)n1)Nc1ccccc1` [Compound 860234] the same measures were 71.5% and 1.17.
As to `Cc1ccc(NC(=O)CSc2nnc(-c3ccco3)c(-c3ccco3)n2)cc1` [Compound 860242], the “% Activity” value is on record as 56.9% and the FRatio is recorded as 1.34.
For `O=C(c1coc(=O)c(Br)c1)N1CCOCC1` [Compound 860621] the same measures were 84.9% and 0.55.
The like results for `ClC1=CCC2CN(CCN3CCCCC3)CC2C1` (stereo not drawn) [Compound 860752] were, in that order, 67.7% and 0.79.
The like results for `COC(=O)c1[nH]c2ccc(C)cc2c1NC(=O)CCN1CCN(Cc2ccc3c(c2)OCO3)CC1` [Compound 862218] were, in that order, 69.7% and 0.81.
With `CC1(C)CCCN(C(=O)c2coc(=O)c(Br)c2)C1` [Compound 862800], the “% Activity” value turned out to be 80.8% and the FRatio worked out at 0.65.
For `CN(C)CCSc1nc(N)c2c3c(sc2n1)CN(C)CC3` [Compound 862887] the same measures were 72.8% and 0.98.
For `O=c1nc2s/c(=C\c3ccco3)c(=O)n2nc1Cc1ccc(F)cc1` [Compound 863170] the same measures were 58.4% and 0.32.
The like results for `COC(=O)c1[nH]c2cccc(OC)c2c1NC(=O)CCN1CCC(C(N)=O)CC1` [Compound 863493] were, in that order, 71.7% and 0.76.
With `CC(=O)c1c(COC(=O)c2ccco2)nc2ccccc2[n+]1[O-]` [Compound 863818], the “% Activity” value is on record as 68.3% and the FRatio was 0.88.
Turning to `C=CCn1c(SCC(=O)c2ccc(O)c(O)c2)nnc1-c1ccccc1OC` [Compound 863840], the “% Activity” value came out at 54.2% and the FRatio came to 0.88.
For the molecule `COc1ccc(OC)c(N2C(=O)[C@@H]3C(c4ccccc4Cl)=NO[C@@H]3C2=O)c1` [Compound 864036], the “% Activity” value was 68.5% and the FRatio was found to be 0.89.
The like results for `CN1CCC2=C(C1)SC1C2C(NCc2ccco2)=Nc2nnnn21` (stereo not drawn) [Compound 864825] were, in that order, 96.4% and 1.26.
For `COCCN1CCN2C(=NC3CC(NC(=O)NC4CCCCC4)CCC32)C1` (stereo not drawn) [Compound 865452] the same measures were 79.7% and 0.73.
For `O=C1NC(=O)[C@]2(Cc3ccccc3N3CCN(c4ccccc4)CC32)C(=O)N1c1ccccc1` (stereo partly drawn) [Compound 865821] the same measures were 53.1% and 1.21.
As to `c1ccc(-c2nn3c(Cn4nnc5ccccc54)nnc3s2)nc1` [Compound 865899], the “% Activity” value is given as 82.6% and the FRatio came to 1.32.
The like results for `Cc1cc(Cl)ccc1OCC(=O)OC(C)C(=O)N(C)C` (stereo not drawn) [Compound 867049] were, in that order, 53.3% and 0.78.
The like results for `Cc1ccc(S(=O)(=O)NC(=O)c2cc(C)n(CCCn3ccnc3)c2C)cc1` [Compound 3173759] were, in that order, 61.5% and 0.99.
The like results for `O=C(CSc1ccc(Cl)cc1)c1ccco1` [Compound 3711335] were, in that order, 75.2% and 0.83.
In the case of `Clc1ccc2nc(CN3CCCc4ccccc43)cn2c1` [Compound 3711377], the “% Activity” value was found to be 61.3% and the FRatio is 0.75.
